Test results: US9732088B2, “C2-carbocyclic iminothiazine dioxides as BACE inhibitors, compositions, and their use” (Merck Sharp & Dohme Corp., priority 2014, dated 2017)

Legend:
HepG2 cells = assay: In Vitro Phospholipidosis Assay; format: cell-based; details: 20 μM, 24 hours, normalized to DMSO
Text: [formula] Assay 7: In Vitro Phospholipidosis Assay
Drug-induced phospholipidosis (PL) is characterized by intracellular accumulation of phospholipids with lamellular bodies, and may result from impaired phospholipid metabolism in the lysosome (Anderson et al., 2006, FEBS Letter, 580, 5533-5540), and many compounds known to cause drug-induced PL are also associated with adverse drug reactions. Using a method described in the literature (Bhandari et al., 2008, Assay and Drug Dev. Tech., 6(3), 407-419), an in vitro cellular assay can provide data that can determine the PL potential of test compounds. In this assay, compounds that lower values for mean inclusion count of a fluorescent phospholipid (described below) versus control are associated with reduced potential for PL.
HepG2 cells were dispensed into 96-well collagen I coated plates at an initial density of 2.0×10^5 cells in 200 μL complete culturing medium (MEM Media w/Earle's Balanced Salt Solution supplemented with 10 IU penicillin, 10 μg/mL streptomycin, and 10% heat inactivated fetal bovine serum). Cells were incubated overnight at 37° C. with 5% CO2, 89% humidity prior to treatment.
A solution of fluorescently labeled phospholipid N-(7-nitrobenz-2-oxa-1,3-diazol-4-yl)-1,2-dihexadecanoyl-sn-glycero-3-phosphoethanolamine (NBD-PE) was prepared at a concentration of 10 mM in absolute ethanol. Dissolution of the NBD-PE was facilitated by sonication in a room temperature water bath for 30 minutes. NBD-PE medium was prepared by diluting NBD-PE stock to a final concentration of 50 μM in complete culturing medium, filtering (pore size, 0.22 μm) prior to use.
Compound treatment stocks were prepared in dimethyl sulfoxide at 500× final concentrations. Working treatment solutions were prepared by diluting compound stocks into NBD-PE medium with DMSO serving as the vehicle control. Treatment concentration was 20 μM. Amiodarone ((2-{4-[(2-butyl-1-benzofuran-3-yl)carbonyl]-2,6-diiodophenoxy}ethyl)diethylamine) served as the assay positive control at the same concentration. All treatments were tested in triplicate for 24 hours.
Following treatment, cultures were rinsed once with Hank's Balanced Salt Solution (HBSS) containing no phenol red. Cultures were then incubated for 30 minutes at 37° C. with […] Hoechst 33342 nuclear stain and […] cell tracker orange cytoplasm stain. After incubation, cells were rinsed once with HBSS and then fixed in 2% formalin solution.
Cultures were imaged using the IN Cell Analyzer 2000 imaging system. One set of images were acquired with the 4× objective using the appropriate Hoechst filter settings to acquire a full-well cell count. Another set of images were acquired to evaluate treatment-related phospholipidosis with the 20× objective.
Images were analyzed using custom algorithms created in the IN Cell Workstation software using NBD-PE inclusion count in the cell cytoplasm as and endpoint associated with phospholipidosis. Data were expressed as fold over control, normalized to the DMSO vehicle control response.

BACE-1 = BACE-1 (Homo sapiens (Human), UniProt P56817); details: data reported in US′109; read-out: BACE-1 Ki (nM) (ii) Data reported in US′109; cited from earlier work
Sequence of BACE-1 (P56817 46-501, species assumed): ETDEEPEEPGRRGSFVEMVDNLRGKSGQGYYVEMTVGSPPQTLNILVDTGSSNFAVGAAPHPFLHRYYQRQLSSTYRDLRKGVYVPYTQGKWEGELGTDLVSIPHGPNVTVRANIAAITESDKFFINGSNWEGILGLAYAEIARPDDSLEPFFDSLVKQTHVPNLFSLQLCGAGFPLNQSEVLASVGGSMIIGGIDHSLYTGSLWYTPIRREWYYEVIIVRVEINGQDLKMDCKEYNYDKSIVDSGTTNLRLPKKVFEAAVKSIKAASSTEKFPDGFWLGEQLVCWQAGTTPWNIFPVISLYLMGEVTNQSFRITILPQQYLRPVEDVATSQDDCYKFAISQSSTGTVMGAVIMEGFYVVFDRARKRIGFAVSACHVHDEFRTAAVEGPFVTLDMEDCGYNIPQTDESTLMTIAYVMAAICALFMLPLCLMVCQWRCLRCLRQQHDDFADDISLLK

CSF Aβ40 = details: cited from earlier work

| SMILES | In Vitro Phospholipidosis Assay: Mean NBD-PE Inclusion Count (Fold over control) (HepG2 cells) | Ki (BACE-1) [nM] | Aβ reduction in vivo in rat (Δ% CSF Aβ40 @ 10 mpk) (ii) Data reported in US′109 (CSF Aβ40) [%] |
| --- | --- | --- | --- |
| COc1cnc2c(Nc3ccc(F)c([C@]4(C)CS(=O)(=O)C(C)(C)C(N)=N4)c3)nccc2n1 [Ex 47 of WO2014059185, reference compound] | 13 | 2.9 | −82 |
| C[C@@]1(c2nc(Nc3nccc4cc(C#N)cnc34)ncc2F)CS(=O)(=O)[C@@](C)(C2CC2)C(N)=N1 [Example 5, 8-({4-[(3R,6S)-6-cyclopropyl-5-imino-3,6-dimethyl-1,1-dioxidothiomorpholin-3-yl]-5-fluoropyrimidin-2-yl}amino)-1,7-naphthyridine-3-carbonitrile] | 1.3 |  |  |
| COc1cnc2c(Nc3cc([C@]4(C)CS(=O)(=O)[C@@](C)(C5CC5)C(N)=N4)c(F)cn3)nccc2c1 [Example 6, N-{4-[(3R,6S)-6-cyclopropyl-5-imino-3,6-dimethyl-1,1-dioxidothiomorpholin-3-yl]-5-fluoropyridin-2-yl}-3-methoxy-1,7-naphthyridin-8-amine] | 3.1 |  |  |
| COc1cnc2c(Nc3ccc(F)c([C@]4(C)CS(=O)(=O)[C@@](C)(C5CC5)C(N)=N4)c3)ncnc2n1 [Example 22, (2S,5R)-2-cyclopropyl-5-(2-fluoro-5-((7-methoxypteridin-4-yl)amino)phenyl)-3-imino-2,5-dimethylthiomorpholine 1,1-dioxide] | 0.9 |  |  |
